The values that follow come from PubChem BioAssay (NCI).

Structures are written as SMILES.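 Each compound was tested at five concentrations against cells in 96-well plates for 48 hours. Definition used: TGI = concentration required for complete inhibition of growth.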 Bounds are passed on as bounds.

Test systems include HCT-15 colon; HS 578T breast; LOX IMVI melanoma; MDA-N; MOLT-4 leukemia; NCI-H522 lung; NCI/ADR-RES ovarian; OVCAR-8 ovarian; SF-295 CNS; SK-MEL-5 melanoma; SK-OV-3 ovarian; SNB-19 CNS; SW-620 colon; UACC-62 melanoma; MDA-MB-231 breast.
What all share (test): growth of human tumour cells (NCI), 48 h

As for `COc1ccc(C=Nc2ccc(-c3nc4ccccc4s3)cc2)cc1OC`, the TGI was above 100 µM in the test on HCT-15 colon; above 100 µM in the test with HS 578T breast; 45.5 µM in the test on LOX IMVI melanoma; 99 µM in the test on MDA-N; 84.4 µM with MOLT-4 leukemia; 47.4 µM with NCI-H522 lung. The TGI was 89.8 µM in the test with NCI/ADR-RES ovarian; above 100 µM with OVCAR-8 ovarian; 55.5 µM in the test with SF-295 CNS; 30.8 µM in the test on SK-MEL-5 melanoma; above 100 µM in the test with SK-OV-3 ovarian; above 100 µM with SNB-19 CNS. For the same compound, the figures for the TGI with SW-620 colon and in the test with UACC-62 melanoma were above 100 µM and 47.2 µM, respectively.
For `O=C1c2ccccc2N=C(c2cc3c(cc2Cl)Sc2nccn2S3(=O)=O)OS(=O)(=O)N1c1ccccc1`, the TGI with HCT-15 colon is 50.8 µM; in the test with HS 578T breast, above 100 µM; in the test on LOX IMVI melanoma, 32 µM; in the test with MDA-MB-231 breast it was 56.2 µM; in the test on MOLT-4 leukemia, 32.8 µM; in the test on NCI-H522 lung it was 25.5 µM. Also, the TGI with OVCAR-8 ovarian was 44.5 µM; with SF-295 CNS, 42.4 µM; with SK-OV-3 ovarian it was above 100 µM; in the test with SNB-19 CNS, above 100 µM; with SW-620 colon, above 100 µM; in the test on UACC-62 melanoma, 50.1 µM.
`CC1=C(C(=O)NNC(=O)Cc2ccccc2)CC(C(=O)NNC(=O)Cc2ccccc2)=C(C)N1`: the TGI in the test with HCT-15 colon, in the test on LOX IMVI melanoma, with MDA-MB-231 breast, in the test on MDA-N, in the test with NCI/ADR-RES ovarian and in the test with OVCAR-8 ovarian was above 100 µM throughout. The TGI in the test with SF-295 CNS, with SK-MEL-5 melanoma, in the test with SK-OV-3 ovarian, in the test with SNB-19 CNS, with SW-620 colon and in the test with UACC-62 melanoma was above 100 µM each time.
As to `O=[N+]([O-])c1ccc(CSc2nn(Cc3ccc([N+](=O)[O-])cc3)cc3ncnc2-3)cc1`, the TGI is above 100 µM with HCT-15 colon; above 100 µM in the test on LOX IMVI melanoma; above 100 µM with MDA-MB-231 breast; above 100 µM in the test on MDA-N; above 100 µM in the test with MOLT-4 leukemia; 67.8 µM with NCI-H522 lung. The TGI in the test with NCI/ADR-RES ovarian, in the test with OVCAR-8 ovarian, with SF-295 CNS, in the test on SK-MEL-5 melanoma, in the test with SK-OV-3 ovarian and in the test with SW-620 colon was above 100 µM throughout. This compound showed a TGI with UACC-62 melanoma of 40.7 µM.
With `CC(=N/NC(=S)N1CCCCCC1)/C(C)=N\NC(=S)N1CCCCCC1`, the TGI is 13.6 µM in the test with HCT-15 colon; 11.8 µM in the test on HS 578T breast; above 22.8 µM with MDA-MB-231 breast; above 100 µM in the test with MDA-N; above 100 µM with MOLT-4 leukemia; 8.97 µM in the test on NCI-H522 lung. The TGI is 16.8 µM in the test on NCI/ADR-RES ovarian; above 100 µM in the test with OVCAR-8 ovarian; 12.5 µM in the test with SF-295 CNS; 10.8 µM in the test on SK-MEL-5 melanoma; 8.85 µM with SK-OV-3 ovarian; 48.1 µM in the test with SNB-19 CNS. Moreover, the TGI in the test with SW-620 colon was determined as 5.23 µM; in the test on UACC-62 melanoma, 12.7 µM.
For `OC1(c2ccccc2)CC2CCC(C1)N2CCCC(O)(c1ccccc1)c1ccccc1` (configuration not stated), the TGI with HCT-15 colon was determined as 27.3 µM; in the test on HS 578T breast, 18.7 µM; in the test with LOX IMVI melanoma, 22.4 µM; in the test on MDA-MB-231 breast it was 43.9 µM; in the test on MOLT-4 leukemia, 36.3 µM; in the test with NCI-H522 lung, 27.9 µM. The TGI was found to be 39.1 µM in the test with NCI/ADR-RES ovarian; 36.1 µM with OVCAR-8 ovarian; 10.6 µM in the test with SF-295 CNS; 10.2 µM in the test on SK-MEL-5 melanoma; 28.1 µM in the test on SK-OV-3 ovarian; 42.9 µM in the test with SNB-19 CNS. Also, the figures for the TGI in the test on SW-620 colon and in the test on UACC-62 melanoma were 22.4 µM and 28.5 µM, respectively.
For the compound `N/C(=N\N=C\c1cc2ccccc2s1)c1cnccn1`, the TGI in the test on HCT-15 colon, in the test with HS 578T breast, with LOX IMVI melanoma, in the test with MDA-MB-231 breast, in the test on MDA-N and in the test on NCI-H522 lung was above 100 µM in each case. Also, the TGI in the test on NCI/ADR-RES ovarian, in the test on OVCAR-8 ovarian, in the test on SF-295 CNS, in the test with SK-MEL-5 melanoma, in the test with SK-OV-3 ovarian and with SNB-19 CNS was above 100 µM in each case. Further, the TGI in the test with SW-620 colon and with UACC-62 melanoma was above 100 µM throughout.
Take `CCOC(=O)COc1cc(-c2ccccc2F)nc2cc3c(cc12)OCO3`: the TGI was above 100 µM in the test on HCT-15 colon; above 100 µM in the test on LOX IMVI melanoma; above 100 µM with MDA-MB-231 breast; above 100 µM with MDA-N; 84.5 µM in the test on MOLT-4 leukemia; above 100 µM in the test on NCI/ADR-RES ovarian. Moreover, the TGI in the test on OVCAR-8 ovarian, with SF-295 CNS, in the test with SK-MEL-5 melanoma, with SK-OV-3 ovarian, with SW-620 colon and in the test with UACC-62 melanoma was above 100 µM throughout.
`Cc1nc2cn3c(c2c(=O)[nH]1)CCCCC3`: the TGI in the test on HCT-15 colon was above 100 µM; in the test with HS 578T breast, above 100 µM; with LOX IMVI melanoma it was above 100 µM; in the test with MDA-MB-231 breast, 69.7 µM; in the test on MOLT-4 leukemia, above 100 µM; in the test with NCI/ADR-RES ovarian it was above 100 µM. Further, the TGI with OVCAR-8 ovarian, with SF-295 CNS, in the test with SK-MEL-5 melanoma, in the test on SK-OV-3 ovarian, with SNB-19 CNS and in the test with SW-620 colon was above 100 µM throughout. Further, the TGI in the test with UACC-62 melanoma was above 100 µM.
As for `CC(NC(=O)Cc1ccc(OP(=O)(OCc2ccc([N+](=O)[O-])o2)N(C)CCCCCl)cc1)c1ccc(OCC2CCCCC2)c(C(N)=O)c1` (configuration not stated), the TGI stood at 6.44 µM with HCT-15 colon; 3.28 µM in the test with LOX IMVI melanoma; 4.37 µM with MDA-MB-231 breast; 3.94 µM with MDA-N; 4.38 µM with MOLT-4 leukemia; 5.18 µM with NCI-H522 lung. In addition, the TGI was 94.3 µM with NCI/ADR-RES ovarian; 16 µM in the test on OVCAR-8 ovarian; 4.84 µM with SF-295 CNS; 2.97 µM in the test on SK-MEL-5 melanoma; 11 µM in the test with SK-OV-3 ovarian; 22.1 µM in the test with SNB-19 CNS. The TGI with SW-620 colon came out at 10.2 µM; with UACC-62 melanoma, 3.28 µM.
